From patent publication US5206223A, “Method for inhibiting heparanase activity” (Yeda Research and Development Co. Ltd., priority 1986, dated 1993)

Legend:
[1] = system: experimental autoimmune encephalomyelitis (EAE); assay: Experimental autoimmune encephalomyelitis (EAE) produced by anti-BP T lymphocytes; type: in vivo, Lewis rats; settings: for Day of onset of EAE / Duration of EAE / % incidence of EAE / Clinical score of EAE: 0.1 mg/kg daily; for % incidence of EAE: None 100; for Clinical score of EAE: scale 1-4, None 3.0
Text: EAE is an experimental autoimmune disease with some features reminiscent of multiple sclerosis in humans. The disease is caused by T lymphocytes immunized to the basic protein (BP) of the central nervous system myelin. To test the effect of heparins on the ability of T lymphocytes to cause autoimmune disease, we used T lymphocytes sensitized against BP, either as T cell lines (Cohen, I. R. Experimental autoimmune encephalomyelitis: Pathogenesis and prevention. In: Immunoregulatory Processes in Multiple Sclerosis and Experimental Allergic Encephalomyelitis. A. A. Vandenbark and J. C. M. Raus, eds. Elsevier Biomedical Res. Amsterdam. 7:91-125 (1985)) or as populations of lymph node cells from BP immunized rats.
EAE was produced by inoculating Lewis rats with a T cell line of anti-BP T lymphocytes (10^6 cells) with anti-BP primed lymph node cells (10^7 cells) intravenously (Cohen, I. R. Experimental autoimmune encephalomyelitis: Pathogenesis and prevention. In: Immunoregulatory Processes in Multiple Sclerosis and Experimental Allergic Encephalomyelitis. A. A. Vandenbark and J. C. M. Raus, eds. Elsevier Biomedical Res. Amsterdam. 7:91-125 (1985)) One day before inoculation and daily for 10 days, the rats received either saline or the heparins.

[2] = Partial thromboplastin time in human volunteers; type: in vivo; settings: 3 mg (500 units) per day
Experimental: The effective dose of heparin, 3 mg (500 units) per day, was computed from the optimal dose per weight in mice and rats and corrected for surface area. […] (not shown).

DTH reaction = assay: In situ DTH: I-LNC injected directly into the ears; type: in vivo, mice; settings: heparin 5 u.g, I-LNC intradermally into ears, 24 h
Experimental: If inhibition of heparanase and heparanase-dependent traffic is the major mechanism by which low dose heparin suppresses DTH, then one might be able to bypass the inhibition of DTH by bypassing the need for vascular traffic of sensitized T lymphocytes. Accordingly we treated recipient mice with an inhibitory dose (5 μg) of heparin, and then injected the donor I-LNC directly into the ears, rather than intravenously. Table 7 illustrates that putting the sensitized lymphocytes in situ bypassed the inhibitory effect on the DTH of 5 μg of heparin. Thus low dose heparin treatment appeared to inhibit DTH only when the DTH-mediat lymphocytes had to make their way to the site of the antigen by way of the circulation.
I-LNC were obtained from BALB/c mice sensitized to OX 5 days earlier. The I-LNC were centrifuged, resuspended in RPMI medium and injected intradermally (3×10^6 cells/20 μ/l) into the dorsal surface of the ears of naive recipient mice. The ears were challenged with OX immediately after cell transfer. The magnitude of DTH ear swelling was determined 24 h later.

heparanase = assay: Inhibition of T lymphocyte heparanase activity (degradation of 35S-labeled heparan sulfate of extracellular matrix); type: biochemical; settings: medium of activated T lymphocytes, 35S-labeled extracellular matrix, various concentrations
Experimental: Heparanase activity was induced into the extracellular medium bathing activated T lymphocytes and tested by incubating the medium with extracellular matrix whose heparan sulfate was labeled with ^35 S as described (Naparstek, Y., Cohen, I. R., Fuks, Z. and I. Vlodavsky. Activated T lymphocytes produce a matrix-degrading heparan sulphate endoglycosidase. Nature 310:241 (1984)). Inhibition of heparanase activity was tested by adding various concentrations of heparin or modified heparins to the reaction mixture and measuring the effect on degradation of the labeled heparin-sulfate as described (Naparstek, Y., Cohen, I. R., Fuks, Z. and I. Vlodavsky.
Activated T lymphocytes produce a matrix-degrading heparan sulphate endoglycosidase, Nature 310:241 (1984)). Totally desulfated heparin and N-desulfated, N-acetylated heparin was prepared as described. (Ayotte, L., A. S. Perlin. NMR spectroscopic observations related to the function of sulfate groups in heparin. Calcium binding vs. biological activity. Carbohydrate Res. 145:267 (1986)).

In the case of heparin, the “EAE clinical score (FIG. 3)” value ([1]; 0.02 mg daily s.c. (0.1 mg/kg), from 1 day before T lymphocyte inoculation) is reported as “inhibits EAE”, the “Day of onset of EAE” value ([1]; B: T cell line, None 5.0) is reported as 6.5 and the “Duration of EAE” value ([1]; B: T cell line, None 5.5) is reported as 3.6 days. The “% incidence of EAE” value ([1]; B: T cell line) was 20%, the “Clinical score of EAE” value ([1]; B: T cell line) was 1.0 and the “Day of onset of EAE” value ([1]; D: primed lymph node cells, None 4.0) was 6.3. The “Duration of EAE” value ([1]; D: primed lymph node cells, None 5.3) was 4.0 days, the “% incidence of EAE” value ([1]; D: primed lymph node cells) was 75% and the “Clinical score of EAE” value ([1]; D: primed lymph node cells) was 1.5. The Partial thromboplastin time [2] was “no change in the partial thromboplastin time”, the Ear swelling (DTH reaction; OX challenge no, no heparin 9 ± 1.0) was 8 ± 1.0 ×10^-4 inch and the Ear swelling (DTH reaction; OX challenge yes, no heparin 22 ± 3.4) was 20.4 ± 1.6 ×10^-4 inch. The “Inhibition of degradation of heparan sulfate by heparanase” value (heparanase) was “yes”.
